# Calls of active or inactive are those of the source. No cut-off for these calls is given here.
# How the values were obtained:
# [1] = molecular target: T1, Metabotropic glutamate receptor 5 (Homo sapiens, UniProt P41594); test: Positive allosteric modulation of human mGluR5 expressed in HEK293 cells assessed as increase of L-glutamate-induced calcium mobilization by FLIPR assay; assay type: functional, cell-based
# Target sequence in this assay (P41594 whole entry): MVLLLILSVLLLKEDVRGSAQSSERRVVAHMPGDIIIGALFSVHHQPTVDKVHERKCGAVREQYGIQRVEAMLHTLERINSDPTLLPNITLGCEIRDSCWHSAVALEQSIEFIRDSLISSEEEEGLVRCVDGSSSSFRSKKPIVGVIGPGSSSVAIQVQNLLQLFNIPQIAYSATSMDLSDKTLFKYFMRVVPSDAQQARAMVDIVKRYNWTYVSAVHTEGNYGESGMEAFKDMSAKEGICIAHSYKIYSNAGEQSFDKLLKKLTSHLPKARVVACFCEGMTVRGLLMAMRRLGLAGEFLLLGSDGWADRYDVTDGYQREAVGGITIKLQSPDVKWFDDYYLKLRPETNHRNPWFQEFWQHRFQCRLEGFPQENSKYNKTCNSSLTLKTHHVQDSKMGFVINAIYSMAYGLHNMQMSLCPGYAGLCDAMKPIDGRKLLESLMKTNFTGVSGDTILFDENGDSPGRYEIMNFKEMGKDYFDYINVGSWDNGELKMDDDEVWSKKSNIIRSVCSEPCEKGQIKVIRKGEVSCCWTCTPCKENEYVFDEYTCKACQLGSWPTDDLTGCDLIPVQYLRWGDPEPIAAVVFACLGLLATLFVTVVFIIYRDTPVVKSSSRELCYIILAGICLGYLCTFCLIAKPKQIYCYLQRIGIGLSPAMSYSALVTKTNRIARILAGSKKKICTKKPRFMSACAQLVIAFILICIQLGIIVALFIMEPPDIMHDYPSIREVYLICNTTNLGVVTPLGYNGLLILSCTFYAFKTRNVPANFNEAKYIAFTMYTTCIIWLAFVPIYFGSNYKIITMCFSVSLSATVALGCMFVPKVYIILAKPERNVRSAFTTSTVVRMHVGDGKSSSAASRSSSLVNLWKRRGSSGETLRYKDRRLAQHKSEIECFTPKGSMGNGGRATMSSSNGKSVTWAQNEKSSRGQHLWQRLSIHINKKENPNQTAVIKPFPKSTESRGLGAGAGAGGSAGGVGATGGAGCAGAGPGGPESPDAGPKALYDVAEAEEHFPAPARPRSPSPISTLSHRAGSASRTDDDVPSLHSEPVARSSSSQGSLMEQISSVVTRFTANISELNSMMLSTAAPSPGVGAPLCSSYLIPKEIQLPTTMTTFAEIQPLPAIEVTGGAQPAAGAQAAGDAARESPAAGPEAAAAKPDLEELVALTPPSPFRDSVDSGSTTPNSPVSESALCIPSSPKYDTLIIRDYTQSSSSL
# [2] = molecular target: T1, Metabotropic glutamate receptor 5; test: Displacement of [3H]-MPEP from human mGluR5 expressed in HEK293 cells after 2 hrs; assay type: cell-based
# Target sequence in this assay (P41594 whole entry): as above
# [3] = molecular target: T1, Metabotropic glutamate receptor 5; test: Positive allosteric modulation of human mGluR5 expressed in HEK293 cells assessed as increase of L-glutamate-induced calcium mobilization at 10 uM by FLIPR assay relative to L-glutamate; assay type: functional, cell-based
# Target sequence in this assay (P41594 21-1212 limits assumed): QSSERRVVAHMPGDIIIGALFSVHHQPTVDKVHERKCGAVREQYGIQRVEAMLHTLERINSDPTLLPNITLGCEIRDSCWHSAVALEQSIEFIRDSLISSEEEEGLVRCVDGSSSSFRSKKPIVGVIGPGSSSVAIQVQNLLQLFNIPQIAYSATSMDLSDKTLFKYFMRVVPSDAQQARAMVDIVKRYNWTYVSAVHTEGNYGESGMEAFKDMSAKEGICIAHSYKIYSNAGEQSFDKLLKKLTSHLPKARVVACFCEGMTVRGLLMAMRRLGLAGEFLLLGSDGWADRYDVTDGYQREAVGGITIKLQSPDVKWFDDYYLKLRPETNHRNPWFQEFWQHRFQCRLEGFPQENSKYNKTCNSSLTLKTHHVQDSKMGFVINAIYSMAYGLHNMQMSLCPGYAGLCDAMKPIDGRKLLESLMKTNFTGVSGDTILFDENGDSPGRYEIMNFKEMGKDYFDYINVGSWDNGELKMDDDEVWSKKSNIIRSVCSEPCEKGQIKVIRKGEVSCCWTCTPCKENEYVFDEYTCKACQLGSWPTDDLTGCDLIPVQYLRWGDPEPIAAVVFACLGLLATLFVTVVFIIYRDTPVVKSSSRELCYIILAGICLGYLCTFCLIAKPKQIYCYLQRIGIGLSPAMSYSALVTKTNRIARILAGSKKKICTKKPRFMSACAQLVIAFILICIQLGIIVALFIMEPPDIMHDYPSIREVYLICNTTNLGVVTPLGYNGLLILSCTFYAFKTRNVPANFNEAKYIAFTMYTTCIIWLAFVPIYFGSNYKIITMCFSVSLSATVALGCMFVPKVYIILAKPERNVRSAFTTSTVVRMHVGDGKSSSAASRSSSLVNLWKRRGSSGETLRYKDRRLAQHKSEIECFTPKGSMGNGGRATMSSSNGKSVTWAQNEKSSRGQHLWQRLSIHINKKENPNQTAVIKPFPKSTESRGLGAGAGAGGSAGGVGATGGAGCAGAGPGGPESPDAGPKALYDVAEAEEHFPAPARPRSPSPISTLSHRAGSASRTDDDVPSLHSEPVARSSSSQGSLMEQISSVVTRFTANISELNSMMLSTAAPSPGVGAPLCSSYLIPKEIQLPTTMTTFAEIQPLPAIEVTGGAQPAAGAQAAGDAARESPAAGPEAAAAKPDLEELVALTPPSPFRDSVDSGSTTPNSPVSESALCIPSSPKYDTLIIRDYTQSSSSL
# [4] = molecular target: T1, Metabotropic glutamate receptor 5; test: Negative allosteric modulation of human mGluR5 expressed in HEK293 cells assessed as inhibition of L-glutamate-induced calcium mobilization at 10 uM by FLIPR assay relative to control; assay type: functional, cell-based
# Target sequence in this assay (P41594 21-1212 limits assumed): as above
# [5] = molecular target: T1, Metabotropic glutamate receptor 5; test: Negative allosteric modulation of human mGluR5 expressed in HEK293 cells assessed as inhibition of L-glutamate-induced calcium mobilization by FLIPR assay; assay type: functional, cell-based
# Target sequence in this assay (P41594 whole entry): as the sequence (P41594 whole entry) above
SMILES,EC50 ([1]; read-out: EC50),Ki [2],Emax [3],Imax [4],IC50 ([5]; read-out: IC50),EC50 ([1]; hek293),IC50 ([5]; hek293)
O=C1c2ccc(C#Cc3cccnc3)nc2CCN1C1CCCC1,748 nM,> 32000 nM,68%,–,–,–,–
CC(C)N1CCc2nc(C#Cc3ccccc3Cl)ccc2C1=O,–,5680 nM,–,61%,2520 nM,–,–
Cc1cccc(C#Cc2ccc3c(n2)CCN(C)C3=O)c1,–,820 nM,–,86%,2.9 nM,–,–
CN1CCc2nc(C#Cc3cccc(Cl)c3)ccc2C1=O,–,250 nM,–,84%,22 nM,–,–
CC(C)NC(=O)c1ccc(C#Cc2ccccc2)nc1,62 nM,7100 nM,61%,–,–,–,–
CC(C)N1CCc2nc(C#Cc3cccnc3)ccc2C1=O,–,19600 nM,–,–,–,Not Active,Not Active
Cc1cccc(C#Cc2ccc3c(n2)CCN(C2CCCCC2)C3=O)c1,36 nM,3210 nM,54%,–,–,–,–
Cc1ccccc1C#Cc1ccc2c(n1)CCN(C1CCCCC1)C2=O,466 nM,> 32000 nM,62%,–,–,–,–
O=C(NC1CCCC1)c1ccc(C#Cc2ccccc2)nc1,19 nM,3300 nM,106%,–,–,–,–
O=C(NC1CCCC1)c1ccc(C#Cc2ccccn2)nc1,–,7600 nM,–,90%,227 nM,–,–
CC(C)N1CCc2nc(C#Cc3cccs3)ccc2C1=O,–,1930 nM,–,78%,45 nM,–,–
O=C(NC1CCCC1)c1ccc(C#Cc2cccnc2)nc1,> 10000 nM,> 32000 nM,68%,–,–,–,–
Cc1ccc(C#Cc2ccc3c(n2)CCN(C)C3=O)cc1,–,7450 nM,–,68%,1400 nM,–,–
O=C1c2ccc(C#Cc3cccnc3)nc2CCN1C1CCCCC1,387 nM,15600 nM,73%,–,–,–,–
CN1CCc2nc(C#Cc3ccccc3Cl)ccc2C1=O,–,7900 nM,–,70%,916 nM,–,–
Cc1ccccc1C#Cc1ccc2c(n1)CCN(C(C)C)C2=O,–,> 32000 nM,–,76%,810 nM,–,–
Cc1cccc(C#Cc2ccc3c(n2)CCN(C2CCCC2)C3=O)c1,7.5 nM,670 nM,97%,–,–,–,–
O=C1c2ccc(C#Cc3cccc(Cl)c3)nc2CCN1C1CCCCC1,171 nM,12000 nM,47%,–,–,–,–
CN1CCc2nc(C#Cc3ccccc3)ccc2C1=O,–,760 nM,–,58%,30 nM,–,–
O=C1c2ccc(C#Cc3ccccc3Cl)nc2CCN1C1CCCC1,393 nM,> 32000 nM,115%,–,–,–,–
Cc1ccc(C#Cc2ccc3c(n2)CCN(C2CCCCC2)C3=O)cc1,–,27200 nM,–,–,–,–,–
CC(C)N1CCc2nc(C#Cc3cccc(Cl)c3)ccc2C1=O,–,100 nM,–,86%,5.7 nM,–,–
Cc1cccc(C#Cc2ccc3c(n2)CCN(C(C)C)C3=O)c1,–,510 nM,–,88%,4.8 nM,–,–
O=C1c2ccc(C#Cc3ccccc3)nc2CCN1C1CCCC1,5.9 nM,890 nM,109%,–,–,–,–
CN1CCc2nc(C#Cc3cccnc3)ccc2C1=O,–,27400 nM,–,–,–,Not Active,Not Active

SMILES,EC50 ([1]; read-out: EC50),Ki [2],Emax [3],Imax [4],IC50 ([5]; read-out: IC50),EC50 ([1]; hek293),IC50 ([5]; hek293)
COc1cccc(C#Cc2ccc3c(n2)CCN(C(C)C)C3=O)c1,–,2950 nM,–,88%,111 nM,–,–
O=C1c2ccc(C#Cc3ccc(Cl)cc3)nc2CCN1C1CCCCC1,–,> 32000 nM,inactive,inactive,–,Not Active,Not Active
O=C1c2ccc(C#Cc3ccccc3)nc2CCN1C1CCCCC1,40 nM,12400 nM,122%,–,–,–,–
CNC(=O)c1ccc(C#Cc2ccccc2)nc1,–,15000 nM,–,–,–,–,–
Cc1ccccc1C#Cc1ccc2c(n1)CCN(C1CCCC1)C2=O,239 nM,18800 nM,107%,–,–,–,–
O=C1c2ccc(C#Cc3ccccn3)nc2CCN1C1CCCCC1,–,2240 nM,–,74%,518 nM,–,–
Cc1ccc(C#Cc2ccc3c(n2)CCN(C2CCCC2)C3=O)cc1,4820 nM,> 32000 nM,97%,–,–,–,–
CC(C)N1CCc2nc(C#Cc3ccc(Cl)cc3)ccc2C1=O,–,27100 nM,–,61%,4230 nM,–,–
COc1cccc(C#Cc2ccc3c(n2)CCN(C2CCCCC2)C3=O)c1,–,23200 nM,–,–,–,–,–
O=C1c2ccc(C#Cc3cccc(Cl)c3)nc2CCN1C1CCCC1,33 nM,5230 nM,87%,–,–,–,–
CC(C)N1CCc2nc(C#Cc3ccccn3)ccc2C1=O,–,2740 nM,–,89%,27 nM,–,–
Cc1ccccc1C#Cc1ccc2c(n1)CCN(C)C2=O,–,> 32000 nM,–,80%,776 nM,–,–
COc1cccc(C#Cc2ccc3c(n2)CCN(C2CCCC2)C3=O)c1,462 nM,> 32000 nM,25%,–,–,–,–
CN1CCc2nc(C#Cc3ccccn3)ccc2C1=O,–,6240 nM,–,92%,184 nM,–,–
COc1cccc(C#Cc2ccc3c(n2)CCN(C)C3=O)c1,–,3660 nM,–,88%,293 nM,–,–
O=C1c2ccc(C#Cc3ccccn3)nc2CCN1C1CCCC1,–,1770 nM,–,80%,199 nM,–,–
CN1CCc2nc(C#Cc3cccs3)ccc2C1=O,–,2170 nM,–,49%,451 nM,–,–
O=C1c2ccc(C#Cc3cccs3)nc2CCN1C1CCCCC1,13 nM,720 nM,112%,–,–,–,–
O=C1c2ccc(C#Cc3cccs3)nc2CCN1C1CCCC1,12 nM,2840 nM,103%,–,–,–,–
O=C1c2ccc(C#Cc3ccccc3Cl)nc2CCN1C1CCCCC1,924 nM,> 32000 nM,68%,–,–,–,–
Cc1ccc(C#Cc2ccc3c(n2)CCN(C(C)C)C3=O)cc1,1010 nM,20200 nM,28%,–,–,–,–
CN1CCc2nc(C#Cc3ccc(Cl)cc3)ccc2C1=O,–,6150 nM,–,73%,352 nM,–,–
CC(C)N1CCc2nc(C#Cc3ccccc3)ccc2C1=O,–,1280 nM,–,60%,706 nM,–,–
O=C1c2ccc(C#Cc3ccc(Cl)cc3)nc2CCN1C1CCCC1,979 nM,> 32000 nM,98%,–,–,–,–

# — ChEMBL document CHEMBL1777732 (Bioorg Med Chem Lett, 2011)
